{
  "source": "paper PMC4116524",
  "about": "“A virtual screen identified C96 as a novel inhibitor of phosphatidylinositol 3-kinase that displays potent preclinical activity against multiple myeloma in vitro and in vivo” (Oncotarget, 2014)",
  "format_in_all_cases": "cell-based",
  "key": {"[1]": {"tested_on": "OPM2 cells", "experiment": "Cell migration analysis by the transwell assay", "conditions": "6 hrs", "experimental": "Next, we evaluated the effects of C96 on MM cell growth by measuring viable cells after starvation/IGF-1 stimulation in the presence of C96. As shown in Supplemental Figure 2A, IGF-1 stimulated MM cell growth, but it was suppressed by C96. We also examined the effects of C96 on MM cell migration upon IGF-1 stimulation.\nThis assay was performed as described previously. Briefly, MM cells OPM2, JJN3 and LP1 were serum starved overnight and then re-suspended in 70 μL of IMDM medium/0.5% fetal calf serum with or without C96. These cells were then loaded onto polycarbonate membranes (8-μm pore size) separating 2 chambers of a transwell (Corning Costar, Cambridge, MA). Medium/0.1% FCS (500 μL) containing agonist IGF-1 was added to the lower chamber of the Transwell cluster plates. After 6 hrs, cells migrating into the lower chamber were counted using a hemacytometer.\nSupplementary Figure S2: C96 inhibits MM cell proliferation and migration in the presence of IGF-1. […] Cells were then incubated for another 24 hr, cell number was analyzed using MTT staining. […] Cells were loaded onto the upper chamber of a transwell, and the lower chamber was filled with IMDM containing agonist IGF-1.After 6 hrs, cells migrating into the lower chamber were counted using a hemacytometer. […]"}, "[2]": {"tested_on": "MM cell lines LP1, OPM2, JJN3, OCI-My5, RPMI-8226, U266, KMS11", "experiment": "Growth inhibition assay (MTT)", "conditions": "panel of MM cell lines, within 72 hrs", "experimental": "MM cells were dispensed in 96-well plates at a density of 8×10^3 cells per well and treated with increasing concentrations of C96 for 72 hrs, and the growth inhibitory effect of C96 on MM cells was assessed by an MTT assay as reported previously. To show the effect of C96 on cell growth in the presence of growth factor IGF-1, MM cells were first maintained in IMDM media containing 0.5% FBS for 12 hrs, followed by C96 treatment alone or in combination with 100 ng/mL of IGF-1. Cells were then incubated for another 24 hrs, relative cell proliferation was analyzed by an MTT assay. […]\nwww.impactjournals.com/oncotarget/ Oncotarget, Supplementary Materials 2014 SUPPLEMENTARY FIGURES AND TABLE\nSupplementary Figure S1: C96 inhibits multiple myeloma cell proliferation. MM cell lines were treated with C96 with indicated concentrations for 72 hrs, followed by MTT assay. […]"}, "[3]": {"tested_on": "AKT phosphorylation in OPM2 cells", "experiment": "IGF-1-stimulated AKT phosphorylation, immunoblotting", "conditions": "OPM2 cells (no PTEN), 2 hrs, IGF-1 15 min", "experimental": "(§1) MM cell lines LP1 and OPM2 were starved overnight before being treated with C96 (0–100 μM) or S14161 (100 μM, a positive control) for a short period (2 hrs), followed by IGF-1 stimulation for 15 min. […] (Figure 2A). In LP1 cells, C96 at 25 μM and 50 μM led to a 50% and 90% decrease in AKT phosphorylation, respectively, in the 2-hr treatment. […] In the time-course study, AKT activation was suppressed by C96 at 50 μM within 0.5 hrs (30 min) (Figure 2B).\n(§2) Figure 2 C96 inhibits AKT and mTOR signaling (A) LP1 and OPM2 were starved overnight, then treated with C96 at the indicated concentrations, or 100 μM of S14161 for 2 hrs, followed by IGF-1 (100 ng/mL) for 15 min. Cells were collected for the analysis of the expression of p-AKT and total AKT (T-AKT) by immunoblotting. (B) LP1 and OPM2 cells were starved overnight, then treated with C96 (50 μM) for different time periods, or S14161 (100 (μM) for 2 hrs, followed by IGF-1 (100 ng/mL) for 15 min. Cells were for the analysis of the expression of p-AKT and T-AKT by immunoblotting. (C) LP1, OPM2, and JJN3 cells were treated with C96 at the indicated concentrations for 24 hrs. Cell lysates were prepared and subjected to immunoblotting assay against p-AKT, AKT, p-mTOR, mTOR, p-4E-BP1, and 4E-BP1. GAPDH was used as a loading control.\n(§3) Cells were treated with or without C96 for 24 hrs before being applied to lysate preparation in a lysis buffer (50 mM Tris-HCI, pH 7.4, 1% NP-40, 0.5% Na-deoxycholate, and 0.1% SDS, 150 mM NaCl, 2 mM EDTA, 2 mM Na3VO4, and 5 mM NaF). Equal amounts (30 μg) of total proteins were subjected to sodium dodecyl sulfate–polyacrylamide gel electrophoresis (SDS-PAGE) separation, followed by immunoblotting analyses with specific antibodies. Antibodies against PARP, caspase-3, AKT, p-AKT(S473), 4E-BP1, p-4E-BP1(S65), IGF-1R, p-IGF-1R, ERK(p42/p44), and p-ERK(p42/p44) were purchased from Cell Signaling Technologies. Antibodies against mTOR, p-mTOR(S2448), p70S6K, p-p70S6K(S424), and GAPDH were obtained from Abgent (Suzhou, China). Horseradish peroxidase-conjugate secondary antibodies against mouse or rabbit and GAPDH were purchased from Abgent. All immunoblotting signals were further analyzed with Quality One Quality One software (Bio-Rad, Berkeley, CA, USA)."}, "[4]": {"tested_on": "AKT phosphorylation in LP1 cells", "experiment": "IGF-1-stimulated AKT phosphorylation, immunoblotting", "conditions": "for decrease in AKT phosphorylation: LP1 cells, 2-hr treatment, IGF-1 15 min", "experimental": "as §1, §2, §3"}},
  "data": [
    {"compound": "O=C1NC(=O)C(=CC=Cc2cccs2)C(=O)N1", "note": "[C96, 5-(3-(2-thienyl)-2-propen-1-ylidene)-2,4,6(1H,3H,5H)-pyrimidinetrione]", "values": [
      {"measurement": "migration through 8-micrometer transwell membrane in the presence of IGF-1", "setting": "[1]", "value": "partly suppressed"},
      {"measurement": "cell proliferation and viability (MTT)", "setting": "[2]", "value": "suppressed cell proliferation and reduced cell viability"},
      {"measurement": "AKT phosphorylation", "setting": "[3]", "value": "markedly decreased"},
      {"measurement": "time within which AKT activation was suppressed", "setting": "[4]; 50 μM, time-course study, LP1 and OPM2 (Figure 2B)", "value": "≤ 0.5", "unit": "h"},
      {"measurement": "decrease in AKT phosphorylation", "setting": "[4]; 25 μM", "value": 50, "unit": "%"},
      {"measurement": "decrease in AKT phosphorylation", "setting": "[4]; 50 μM", "value": 90, "unit": "%"}
    ]}
  ]
}
